# “And” between values parts separate entries of the source, which are not always exact repeats. Identical values can stand only once. Like-named read-outs stand apart in the source and are kept apart here.
# Experiments:
# [1] = Reference trough level (cmin) at steady state; type: in vivo, human; conditions: minimum steady-state plasma concentration, calculated based on cmax; ref supplement [7], [2,5,24], [51]
# [2] = Autosampler stability of ready for injection samples; type: physicochemical, human
# [3] = Plasma concentrations in patients on oral antitumor therapy (LC-MS); type: in vivo, human; conditions: for Measured plasma concentration: 24 h, ±4 h of trough level: no; for Median Concentration of All Samples [% of r.c.] / Min–Max Concentration [% of r.c.]: patient plasma, r.c. = respective cmin, all samples
# Source text: The liquid chromatography-mass spectrometer system consisted of a Thermo Scientific Dionex UltiMate^TM 3000 with an integrated and temperature controlled autosampler (Thermo Fisher Scientific, Dreieich, Germany). An Acquity UPLC® BEH C18 column (2.1 × 100 mm, 1.7 µm; Waters, Milford, CT, USA) equipped with an Acquity UPLC® BEH C18 VanGuard^TM Pre-Column (2.1 × 5 mm, 1.7 µm; Waters, Milford, CT, USA) was used for chromatographic separation. The Q-Exactive^TM Focus mass spectrometer (MS) was hyphenated with a heated electrospray ionization (HESI) source (both from Thermo Fisher Scientific, Dreieich, Germany).
# Chromatographic separation was achieved using a gradient elution with water containing 0.5% (v/v) FA (eluent A) and MeOH with 0.1% (v/v) FA (eluent B). The injection volume was 5 µL. The gradient program is shown in Supplement Table S2. The flow rate was 0.5 mL/min with a total run time of 15 min. The column heater was maintained at 50 °C and the autosampler temperature was 4 °C.
# The following MS and HESI settings were maintained for all analyses: Sheath gas, auxiliary gas, and sweep gas flow rates were set to 60, 20, and 0, respectively. The spray voltage was 4000 V. Both capillary and auxiliary gas heater temperatures were set to 400 °C. High-purity nitrogen gas was used for the HESI source gases and for the bath gas of the C-trap. […] The HESI source was configured in positive mode for ionization.
# The stock solutions were stored in glass vials at −80 °C. Aliquots of all stock solutions were combined in ACN (volumes of individual stock solution solvents are negligible) to obtain a standard solution of all analytes with an individual concentration of 200% of the respective trough level (cmin). Eight individual working standards were prepared by stepwise dilution of this standard solution with concentrations from 10 to 200% cmin (shown in Supplement Table S3). Furthermore, the four individual IS stock solutions were combined and diluted to 50 ng/mL with ACN. Calibration and validation standards were prepared by spiking 50 µL pooled human plasma with 10 µL of the respective working solution. Next, 250 µL IS solution (50 ng/mL in ACN) were added and vortexed vigorously. […] Then, 100 µL supernatant were transferred to 300 µL HPLC insert glass vials and diluted with 100 µL eluent (90% A/10% B). For blank samples, 50 µL pooled human plasma were combined with 10 µL ACN (instead of working solution) and prepared as described above. The calibration and validation standards were freshly prepared before every run. Patient plasma samples were prepared as calibration and validation standards (no additional processing step necessary), except for adding 10 µL ACN instead of 10 µL working standard. Before sample preparation, the frozen plasma samples were thawed in absence of light at 4 °C.
# Blood samples were collected over the entire dosing interval from patients treated with an oral anticancer drug as listed in Supplement Table S4. […] A maximum of two samples at two different time points throughout the entire dosing interval were collected per patient. Treatment duration before collection was at least five half-lives (depending on the specific oral anticancer drug). The samples were collected in K3-EDTA tubes.
# A total of 71 blood samples from 39 patients treated with 14 different oral anticancer drugs were collected (see Supplement Table S4 for details). All patients were recruited from independent outpatient clinics associated with the Comprehensive Cancer Center of the University Hospital Erlangen (CCC Erlangen-EMN). Of 71 blood samples, 41 were taken ±4 h of trough level (cmin).
# [4] = Freeze-thaw stability in spiked pooled human plasma; type: physicochemical
# [5] = Short-term stability in spiked pooled human plasma (bench-top, 4 °C, 56 °C)
# [6] = Long-term stability in spiked pooled human plasma
# [7] = design: method as in supplement references [1-55] as printed per drug; conditions: minimum steady-state blood plasma concentration after multiple dose administration; ref supplement references [1-55] per drug; cited from earlier work
structure (smiles),measurement,setting,value
C=CC(=O)N1CCC[C@@H](n2nc(-c3ccc(Oc4ccccc4)cc3)c3c(N)ncnc32)C1 [Ibrutinib],cmin,[1],66 ng/mL
same,"Autosampler (24h, 4°C) Accuracy [%]",[2]; validation standard 2xLLOV,101.4%
same,"Autosampler (72h, 4°C) Accuracy [%]",[2]; validation standard 2xLLOV,100.0%
same,"Autosampler (24h, 4°C) Accuracy [%]",[2]; validation standard LLOV,97.6%
same,"Autosampler (72h, 4°C) Accuracy [%]",[2]; validation standard LLOV,95.8%
same,"Autosampler (24h, 4°C) Accuracy [%]",[2]; validation standard MOV,103.0%
same,"Autosampler (72h, 4°C) Accuracy [%]",[2]; validation standard MOV,103.7%
same,"Autosampler (24h, 4°C) Accuracy [%]",[2]; validation standard ULOV,100.0%
same,"Autosampler (72h, 4°C) Accuracy [%]",[2]; validation standard ULOV,102.6%
same,Measured plasma concentration,[3]; 420 mg/day,3.2 ng/mL and 4.2 ng/mL
same,Measured plasma concentration,[3]; 560 mg/day,115.2 ng/mL and 139.5 ng/mL
same,Interpatient Coefficient of Variation [%],[3]; patient plasma concentrations,110.0%
same,Median Concentration of All Samples [% of r.c.],[3],110.1 % of r.c.
same,Min–Max Concentration [% of r.c.],[3],4.8–211.4 % of r.c.
same,Freeze-Thaw Accuracy [%],[4]; validation standard 2xLLOV,100.8%
same,Freeze-Thaw Accuracy [%],[4]; validation standard LLOV,100.2%
same,Freeze-Thaw Accuracy [%],[4]; validation standard MOV,93.3%
same,Freeze-Thaw Accuracy [%],[4]; validation standard ULOV,95.6%
COc1cc2c(Nc3ccc(Br)cc3F)ncnc2cc1OCC1CCN(C)CC1 [Vandetanib],"Short-time stability (1h, 56°C) Accuracy [%]",[5]; validation standard 2xLLOV,44.7%
same,"Short-time stability (24h, 4°C, without daylight) Accuracy [%]",[5]; validation standard 2xLLOV,99.4%
same,"Short-time stability (24h, RT, with daylight) Accuracy [%]",[5]; validation standard 2xLLOV,97.2%
same,"Short-time stability (24h, RT, without daylight) Accuracy [%]",[5]; validation standard 2xLLOV,94.8%
same,"Short-time stability (1h, 56°C) Accuracy [%]",[5]; validation standard LLOV,24.9%
same,"Short-time stability (24h, 4°C, without daylight) Accuracy [%]",[5]; validation standard LLOV,91.7%
same,"Short-time stability (24h, RT, with daylight) Accuracy [%]",[5]; validation standard LLOV,81.4%
same,"Short-time stability (24h, RT, without daylight) Accuracy [%]",[5]; validation standard LLOV,80.3%
same,"Short-time stability (1h, 56°C) Accuracy [%]",[5]; validation standard MOV,49.3%
same,"Short-time stability (24h, 4°C, without daylight) Accuracy [%]",[5]; validation standard MOV,101.6%
same,"Short-time stability (24h, RT, with daylight) Accuracy [%]",[5]; validation standard MOV,95.8%
same,"Short-time stability (24h, RT, without daylight) Accuracy [%]",[5]; validation standard MOV,95.1%
same,"Short-time stability (1h, 56°C) Accuracy [%]",[5]; validation standard ULOV,41.3%
same,"Short-time stability (24h, 4°C, without daylight) Accuracy [%]",[5]; validation standard ULOV,88.8%
same,"Short-time stability (24h, RT, with daylight) Accuracy [%]",[5]; validation standard ULOV,83.1%
same,"Short-time stability (24h, RT, without daylight) Accuracy [%]",[5]; validation standard ULOV,83.3%
same,"Long-term stability, 1 month, -20°C Accuracy [%]",[6]; validation standard 2xLLOV,99.7%
same,"Long-term stability, 1 month, -80°C Accuracy [%]",[6]; validation standard 2xLLOV,97.7%
same,"Long-term stability, 2 month, -20°C Accuracy [%]",[6]; validation standard 2xLLOV,105.9%
same,"Long-term stability, 2 month, -80°C Accuracy [%]",[6]; validation standard 2xLLOV,106.4%
same,"Long-term stability, 3 month, -20°C Accuracy [%]",[6]; validation standard 2xLLOV,101.7%
same,"Long-term stability, 3 month, -80°C Accuracy [%]",[6]; validation standard 2xLLOV,101.7%
same,"Long-term stability, 6 weeks, 4°C, without daylight Accuracy [%]",[6]; validation standard 2xLLOV,92.2%
same,"Long-term stability, 1 month, -20°C Accuracy [%]",[6]; validation standard LLOV,95.3%
same,"Long-term stability, 1 month, -80°C Accuracy [%]",[6]; validation standard LLOV,88.9%
same,"Long-term stability, 2 month, -20°C Accuracy [%]",[6]; validation standard LLOV,97.5%
same,"Long-term stability, 2 month, -80°C Accuracy [%]",[6]; validation standard LLOV,97.6%
same,"Long-term stability, 3 month, -20°C Accuracy [%]",[6]; validation standard LLOV,87.6%
same,"Long-term stability, 3 month, -80°C Accuracy [%]",[6]; validation standard LLOV,83.6%
same,"Long-term stability, 6 weeks, 4°C, without daylight Accuracy [%]",[6]; validation standard LLOV,85.4%
same,"Long-term stability, 1 month, -20°C Accuracy [%]",[6]; validation standard MOV,98.6%
same,"Long-term stability, 1 month, -80°C Accuracy [%]",[6]; validation standard MOV,95.9%
same,"Long-term stability, 2 month, -20°C Accuracy [%]",[6]; validation standard MOV,105.7%
same,"Long-term stability, 2 month, -80°C Accuracy [%]",[6]; validation standard MOV,105.2%
same,"Long-term stability, 3 month, -20°C Accuracy [%]",[6]; validation standard MOV,105.3%
same,"Long-term stability, 3 month, -80°C Accuracy [%]",[6]; validation standard MOV,104.4%
same,"Long-term stability, 6 weeks, 4°C, without daylight Accuracy [%]",[6]; validation standard MOV,100.6%
same,"Long-term stability, 1 month, -20°C Accuracy [%]",[6]; validation standard ULOV,93.1%
same,"Long-term stability, 1 month, -80°C Accuracy [%]",[6]; validation standard ULOV,88.0%
same,"Long-term stability, 2 month, -20°C Accuracy [%]",[6]; validation standard ULOV,98.6%
same,"Long-term stability, 2 month, -80°C Accuracy [%]",[6]; validation standard ULOV,98.6%
same,"Long-term stability, 3 month, -20°C Accuracy [%]",[6]; validation standard ULOV,97.4%
same,"Long-term stability, 3 month, -80°C Accuracy [%]",[6]; validation standard ULOV,98.8%
same,"Long-term stability, 6 weeks, 4°C, without daylight Accuracy [%]",[6]; validation standard ULOV,93.5%
same,"Autosampler (24h, 4°C) Accuracy [%]",[2]; validation standard 2xLLOV,103.5%
same,"Autosampler (72h, 4°C) Accuracy [%]",[2]; validation standard 2xLLOV,102.7%
same,"Autosampler (24h, 4°C) Accuracy [%]",[2]; validation standard LLOV,85.9%
same,"Autosampler (72h, 4°C) Accuracy [%]",[2]; validation standard LLOV,83.5%
same,"Autosampler (24h, 4°C) Accuracy [%]",[2]; validation standard MOV,108.2%
same,"Autosampler (72h, 4°C) Accuracy [%]",[2]; validation standard MOV,101.8%
same,"Autosampler (24h, 4°C) Accuracy [%]",[2]; validation standard ULOV,95.3%
same,"Autosampler (72h, 4°C) Accuracy [%]",[2]; validation standard ULOV,94.4%
same,Measured plasma concentration,[3]; 300 mg/day,757.7 ng/mL and 621.3 ng/mL
same,Median Concentration of All Samples [% of r.c.],[3],86.7 % of r.c.
same,Min–Max Concentration [% of r.c.],[3],78.2–95.3 % of r.c.
same,cmin,[7],795 ng/mL
same,Freeze-Thaw Accuracy [%],[4]; validation standard 2xLLOV,97.2%
same,Freeze-Thaw Accuracy [%],[4]; validation standard LLOV,83.4%
same,Freeze-Thaw Accuracy [%],[4]; validation standard MOV,101.5%
same,Freeze-Thaw Accuracy [%],[4]; validation standard ULOV,94.0%

# Source: PMC8699473, “An Easily Expandable Multi-Drug LC-MS Assay for the Simultaneous Quantification of 57 Oral Antitumor Drugs in Human Plasma” (Cancers, 2021)
